Measured values reported in publication PMC7345836, “Absorption and Tissue Distribution of Siphonaxanthin from Green Algae” (Marine Drugs, 2020).

Columns and labels:
Caco-2 cells = experiment: Uptake and metabolism of micellar siphonaxanthin by differentiated Caco-2 cells; format: in vitro ADME, human; details: Caco-2 cells incubated with 1 nmol/well siphonaxanthin solubilized micelles for 1, 3, 6 and 24 h
Description: Caco-2 cells obtained from the RIKEN Gene Bank (Tsukuba, Japan) were cultured in Dulbecco’s Modified Eagle’s Medium (DMEM) containing 10% fetal bovine serum (FBS), 1% penicillin-streptomycin (PS), and 1% non-essential amino acids in a humidified atmosphere of 95% air and 5% CO2 at 37 °C. For differentiation, cells were seeded in 12-well plates at a density of 2.0 × 10^5 cells/well in 1 mL DMEM medium described above and allowed to differentiate until day 22 from seeding. The medium was regularly changed three times a week. Experiments were performed at day 22 post-seeding on 12-well plates.
Siphonaxanthin solubilized in micelles was added to the medium for treatment, and micelle formation was performed as previously described. […] The concentration of micellar carotenoid was determined as 1.0 ± 0.05 μmol/L by HPLC before use in the following experiment.
The cell monolayers on 12-well plates were rinsed with the serum-free medium and then incubated in 1 mL of medium containing micellar siphonaxanthin. […] The residue was dissolved in methanol and subjected to quantitative and qualitative analysis. […] The concentration of siphonaxanthin in the medium was also analyzed. An aliquot of the medium was mixed with 4-fold methanol and subjected to the above HPLC analysis for quantify. […]

[1] = Body weight, food intake and tissue weight of ICR mice fed siphonaxanthin diet; format: in vivo
Description: (§1) All experimental animal protocols were approved by the Animal Experimentation Committee of Kyoto University, Japan, for the care and use of experimental animals (Approval No. 26–35). Male ICR mice (7 weeks of age) were purchased from Japan SLC, Inc. (Hamamatsu, Japan). All mice were housed individually and maintained on an alternating 12-h light/dark cycle at a temperature of 23 ± 1 °C and free access to drinking water and chow (Oriental Yeast Co., Ltd., Tokyo, Japan). After an acclimatization period of 1 week, the mice were randomly divided into control and siphonaxanthin groups (n = 4 per group). Mice in the control group were fed an AIN-93G diet. The siphonaxanthin mouse group was fed the AIN-93G diet with siphonaxanthin supplementation, 65.79 nmol/g of diet (0.004%). The total food intake and body weight were recorded daily. After dietary supplementation for 16 days, the mice were anesthetized with isoflurane. Blood was collected from the caudal vena cava. Plasma was prepared by centrifuging at 400 g for 15 min at 4 °C. The tissues were rapidly removed, weighed, and immediately frozen in liquid nitrogen, and stored at −80 °C until use.

[2] = Tissue distribution and accumulation of siphonaxanthin and its metabolites in mice after 16-day dietary supplementation (HPLC); format: in vivo; details: ICR mice
Description: as §1
Carotenoids were then extracted from the plasma and tissues. Briefly, aliquots of tissue samples (0.2 g) were homogenized in a 9-fold volume of 0.9% NaCl saline with a homogenizer dispenser (T10 basic ULTRA-TURRAX, IKA). Plasma samples were diluted with a 3-fold volume of Milli-Q water. The resultant tissue homogenates (0.9 mL) or diluent plasma samples (0.9 mL) were mixed with 3 mL of dichloromethane/methanol (2:1, v/v) to extract carotenoids. The samples were extracted three times, and the dichloromethane layer was collected after centrifugation at 1690 g at 4 °C for 10 min. After evaporation under nitrogen, the residue was resuspended in 20 μL of dichloromethane and methanol (1:1, v/v) for HPLC analysis.
HPLC analysis was performed using a Prominence LC system (Shimadzu, Kyoto, Japan) connected to a photodiode array detector (SPD-M20A, Shimadzu, Kyoto, Japan), followed by an ion trap-time of flight mass spectrometer (LCMS-IT-TOF, Shimadzu, Kyoto, Japan) equipped with an atmospheric pressure chemical ionization (APCI) source or electrospray ionization (ESI) source. Siphonaxanthin was separated on a TSK gel ODS-80Ts QA column (2.0 × 250 mm, 5 μm, Tosoh, Tokyo, Japan). The binary gradient mobile phase was methanol/water (83:17, v/v) containing 0.1% ammonium acetate as mobile phase A and ethyl acetate/methanol (30:70, v/v) containing 0.1% ammonium acetate as mobile phase B. The column was eluted at a flow rate of 0.2 mL/min using the following gradients: 0–30 min, 0% B; 30–45 min, 0–100% B; 45–60 min, 100% B; 60–65 min, 100–0% B; 65–70 min, 0% B. Siphonaxanthin was detected at 450 nm. The APCI source was heated at 200 °C, and the probe was maintained at 400 °C. Nitrogen was used as sheath gas at 2.0 L/min, and drying gas was used at 25 kPa. Mass spectra were recorded in the positive ion mode. For the ESI source, sheath gas was set at 1.5 L/min, and drying gas was used at 120 kPa. A spray voltage of 4.5 kV was used for positive ionization. The peak identities of siphonaxanthin and its possible metabolites were further confirmed from their characteristic UV-vis spectra and their positive ions. Siphonaxanthin was quantified from its peak area at 450 nm using an external standard calibration curve with purified siphonaxanthin. Due to the unavailability of standards, possible metabolites of siphonaxanthin were estimated from the siphonaxanthin standard curve.

[3] = siphonaxanthin diet vs control diet, 16 days

## CC1=C[C@H](O)CC(C)(C)[C@H]1/C=C/C(C)=C/C=C/C(C)=C/C=C/C=C(C)/C=C/C=C(\CO)C(=O)CC1=C(C)C[C@@H](O)CC1(C)C [Siphonaxanthin, 3,19,3’-Trihydroxy-7,8-dihydro-β,ε-caroten-8-one]
Caco-2 cells
  Cellular concentration of siphonaxanthin: rapidly and linearly increased until 3 h after incubation, and then gradually increased until 24 h
  Concentration of siphonaxanthin in the medium: decreased with increasing incubation time
[1]; [3]
  Body weight: not altered
  Weight of the other tissues: did not significantly decrease
[1]; siphonaxanthin diet vs control diet, 16 days, p < 0.05
  Weight of the spleen: significantly decreased
[1]; siphonaxanthin vs control group, 16-day experimental period
  Food intake: not altered
[2]; Brain, 16-day diet with siphonaxanthin 65.79 nmol/g, mean ± SEM, n = 4, N.D., not detected
  Concentration in brain: 0.4 ± 0.3 pmol/g
[2]; Brain, 16-day siphonaxanthin diet
  % of the total carotenoids in brain: 100%
[2]; Colon, 16-day diet with siphonaxanthin 65.79 nmol/g, mean ± SEM, n = 4
  Concentration in colon: 198 ± 24.5 pmol/g
[2]; Colon, 16-day siphonaxanthin diet
  % of the total carotenoids in colon: 82.5%
[2]; Epididymal WAT, 16-day siphonaxanthin diet
  % of the total carotenoids in epididymal WAT: 14.6%
[2]; Epididymal white adipose tissue, 16-day diet with siphonaxanthin 65.79 nmol/g, mean ± SEM, n = 4, N.D., not detected
  Concentration in epididymal WAT: 27.8 ± 14.3 pmol/g
[2]; Heart, 16-day diet with siphonaxanthin 65.79 nmol/g, mean ± SEM, n = 4
  Concentration in heart: 67.1 ± 25.2 pmol/g
[2]; Heart, 16-day siphonaxanthin diet
  % of the total carotenoids in heart: 52.2%
[2]; Interscapular brown adipose tissue, 16-day diet with siphonaxanthin 65.79 nmol/g, mean ± SEM, n = 4
  Concentration in BAT: 30.5 ± 11.4 pmol/g
[2]; Interscapular brown adipose tissue, 16-day siphonaxanthin diet
  % of the total carotenoids in BAT: 41.7%
[2]; Kidney, 16-day diet with siphonaxanthin 65.79 nmol/g, mean ± SEM, n = 4
  Concentration in kidney: 38.2 ± 15.7 pmol/g
[2]; Kidney, 16-day siphonaxanthin diet
  % of the total carotenoids in kidney: 84.1%
[2]; Liver, 16-day diet with siphonaxanthin 65.79 nmol/g, mean ± SEM, n = 4
  Concentration in liver: 37.1 ± 14.4 pmol/g
[2]; Liver, 16-day siphonaxanthin diet
  % of the total carotenoids in liver: 18.7%
[2]; Lung, 16-day diet with siphonaxanthin 65.79 nmol/g, mean ± SEM, n = 4
  Concentration in lung: 22.9 ± 8.2 pmol/g
[2]; Lung, 16-day siphonaxanthin diet
  % of the total carotenoids in lung: 38.8%
[2]; Mesenteric WAT, 16-day siphonaxanthin diet
  % of the total carotenoids in mesenteric WAT: 24.5%
[2]; Mesenteric white adipose tissue, 16-day diet with siphonaxanthin 65.79 nmol/g, mean ± SEM, n = 4
  Concentration in mesenteric WAT: 110 ± 50.8 pmol/g
[2]; Muscle, 16-day diet with siphonaxanthin 65.79 nmol/g, mean ± SEM, n = 4
  Concentration in muscle: 14.2 ± 7.5 pmol/g
[2]; Muscle, 16-day siphonaxanthin diet
  % of the total carotenoids in muscle: 52.6%
[2]; Pancreas, 16-day diet with siphonaxanthin 65.79 nmol/g, mean ± SEM, n = 4
  Concentration in pancreas: 46.1 ± 12.5 pmol/g
[2]; Pancreas, 16-day siphonaxanthin diet
  % of the total carotenoids in pancreas: 45.4%
[2]; Perirenal WAT, 16-day siphonaxanthin diet
  % of the total carotenoids in perirenal WAT: 13.3%
[2]; Perirenal white adipose tissue, 16-day diet with siphonaxanthin 65.79 nmol/g, mean ± SEM, n = 4
  Concentration in perirenal WAT: 22.1 ± 12.0 pmol/g
[2]; Plasma, 16-day siphonaxanthin diet
  % of the total carotenoids in plasma: 5.5%
[2]; Small intestine, 16-day diet with siphonaxanthin 65.79 nmol/g, mean ± SEM, n = 4
  Concentration in small intestine: 3428 ± 1389 pmol/g
[2]; Small intestine, 16-day siphonaxanthin diet
  % of the total carotenoids in small intestine: 79.5%
[2]; Spleen, 16-day diet with siphonaxanthin 65.79 nmol/g, mean ± SEM, n = 4
  Concentration in spleen: 20.6 ± 3.4 pmol/g
[2]; Spleen, 16-day siphonaxanthin diet
  % of the total carotenoids in spleen: 45.7%
[2]; Stomach, 16-day diet with siphonaxanthin 65.79 nmol/g, mean ± SEM, n = 4, siphonaxanthin standard curve
  Concentration in stomach: 2054 ± 636 pmol/g
[2]; Stomach, 16-day siphonaxanthin diet
  % of the total carotenoids in stomach: 94.0%
[2]; Testis, 16-day diet with siphonaxanthin 65.79 nmol/g, mean ± SEM, n = 4
  Concentration in testis: 25.0 ± 10.0 pmol/g
[2]; Testis, 16-day siphonaxanthin diet
  % of the total carotenoids in testis: 84.3%
[2]; male, mouse, oral, 65.79 nmol/g of diet, Plasma, 16-day diet with siphonaxanthin 65.79 nmol/g, mean ± SEM, n = 4
  concentration at 16 days: 18.3 ± 4 nM
